± gives the standard deviation of the reports.
SMILES	glass transition temperature [°C]
*Oc1ccc(Oc2ccc(Oc3cccc4c3C(=O)N(CCCCCCCCN3C(=O)c5cccc(*)c5C3=O)C4=O)cc2)cc1 (repeat unit)	128.00
*Oc1cccc(Sc2ccc(Oc3ccc4c(c3)C(=O)N(c3ccc(Oc5ccc(N6C(=O)c7ccc(*)cc7C6=O)cc5)cc3)C4=O)cc2)c1 (repeat unit)	212.00
*c1ccc(P(=O)(c2ccccc2)c2ccc(N3C(=O)c4ccc(-c5ccc6c(c5)C(=O)N(*)C6=O)cc4C3=O)cc2)cc1 (repeat unit)	371.00
*Oc1cccc(C(=O)c2ccc(Oc3ccc4c(c3)C(=O)N(c3ccc(Oc5ccc(N6C(=O)c7ccc(*)cc7C6=O)cc5)cc3)C4=O)cc2)c1 (repeat unit)	210.00
*C(=O)c1ccc2c(c1)C(=O)N(c1c(CC)cc(Cc3cc(CC)c(N4C(=O)c5ccc(*)cc5C4=O)c(CC)c3Cl)c(Cl)c1CC)C2=O (repeat unit)	300.00
*c1ccc2c(c1)C(=O)N(c1ccc(N3C(=O)c4ccc(C(*)(C(F)(F)F)C(F)(F)F)cc4C3=O)cc1F)C2=O (repeat unit)	370.00
*C(=O)c1ccc2c(c1)C(=O)N(c1cc(N3C(=O)c4ccc(*)cc4C3=O)ccc1OCC(F)(F)C(F)(F)C(F)(F)C(F)(F)C(F)(F)C(F)(F)C(F)(F)C(F)(F)C(F)(F)C(F)(F)F)C2=O (repeat unit)	194.00
*Oc1cccc(S(=O)(=O)c2ccc(Oc3ccc4c(c3)C(=O)N(c3ccc(Oc5ccc(N6C(=O)c7ccc(*)cc7C6=O)cc5)cc3)C4=O)cc2)c1 (repeat unit)	260.00
*c1ccc2c(c1)C(=O)N(c1ccc(-c3ccc(N4C(=O)c5ccc(C(*)(C(F)(F)F)C(F)(F)F)cc5C4=O)cc3-c3ccccc3C(F)(F)F)c(-c3ccccc3C(F)(F)F)c1)C2=O (repeat unit)	289.00
*c1ccc2c(c1)C(=O)N(c1ccc(-c3ccc(N4C(=O)c5ccc(C(*)(C(F)(F)F)C(F)(F)F)cc5C4=O)cc3Cl)c(Cl)c1)C2=O (repeat unit)	336.00
*c1ccc2c(c1)C(=O)N(c1ccc(OCC(F)(F)C(F)(F)C(F)(F)F)c(N3C(=O)c4ccc(C(*)(C(F)(F)F)C(F)(F)F)cc4C3=O)c1)C2=O (repeat unit)	266.00
*c1ccc(Oc2ccccc2N2C(=O)c3cc4c(cc3C2=O)C(=O)N(*)C4)cc1 (repeat unit)	386.00
*C(=O)Oc1ccc2ccccc2c1-c1c(OC(=O)c2ccc3c(c2)C(=O)N(c2ccc(C(=O)Oc4ccc5ccccc5c4-c4c(OC(=O)c5ccc(N6C(=O)c7ccc(*)cc7C6=O)cc5)ccc5ccccc45)cc2)C3=O)ccc2ccccc12 (repeat unit)	266.50
*Oc1c(F)c(F)c(Oc2c(F)c(F)c3c(c2F)C(=O)N(c2c(F)c(F)c(Oc4c(F)c(F)c(N5C(=O)c6c(F)c(*)c(F)c(F)c6C5=O)c(F)c4F)c(F)c2F)C3=O)c(F)c1F (repeat unit)	300.00
*c1ccc2c(c1)C(=O)N(c1ccc(N3C(=O)c4ccc(C(*)(C(F)(F)F)C(F)(F)F)cc4C3=O)cc1C(F)(F)F)C2=O (repeat unit)	366.00
*Oc1c(F)c(F)c(Oc2c(F)c(F)c3c(c2F)C(=O)N(c2c(F)c(F)c(F)c(N4C(=O)c5c(F)c(*)c(F)c(F)c5C4=O)c2F)C3=O)c(F)c1F (repeat unit)	309.00
*c1cc(N2C(=O)c3ccc(-c4ccc5c(c4)C(=O)N(*)C5=O)cc3C2=O)ccc1OCC(F)(F)C(F)(F)C(F)(F)C(F)(F)C(F)(F)C(F)(F)F (repeat unit)	262.00
*C(=O)c1ccc2c(c1)C(=O)N(c1ccc(C(=O)Oc3ccc4ccccc4c3-c3c(OC(=O)c4ccc(N5C(=O)c6ccc(*)cc6C5=O)cc4)ccc4ccccc34)cc1)C2=O (repeat unit)	273.50
*C(=O)c1ccc2c(c1)C(=O)N(c1ccc(S(=O)(=O)c3ccc(N4C(=O)c5ccc(*)cc5C4=O)cc3)cc1)C2=O (repeat unit)	307.00

Other lines, results leading:

glass transition temperature [°C]	SMILES
259.00	*C(=O)c1ccc2c(c1)C(=O)N(c1cccc(C(=O)c3ccccc3N3C(=O)c4ccc(*)cc4C3=O)c1)C2=O (repeat unit)
198.00	*Oc1cccc2c1C(=O)N(c1cccc(Oc3ccc(C(=O)c4ccc(Oc5cccc(N6C(=O)c7cccc(*)c7C6=O)c5)cc4)cc3)c1)C2=O (repeat unit)
297.00	*c1ccc2c(c1)C(=O)N(c1ccc(Cc3ccc(N4C(=O)c5ccc(*)cc5C4=O)c(C)c3C)c(C)c1C)C2=O (repeat unit)
299.50 ± 0.7	*c1cccc2c1C(=O)N(c1ccc(Cc3ccc(N4C(=O)c5cccc(*)c5C4=O)c(C)c3)cc1C)C2=O (repeat unit)
267.00	*Oc1cccc(S(=O)(=O)c2ccc(Oc3cccc4c3C(=O)N(c3ccc(Oc5ccc(N6C(=O)c7cccc(*)c7C6=O)cc5)cc3)C4=O)cc2)c1 (repeat unit)
306.00 ± 26	*c1cccc2c1C(=O)N(c1ccc(Oc3ccc(N4C(=O)c5cccc(*)c5C4=O)cc3)cc1)C2=O (repeat unit)
238.00 ± 5.7	*Sc1ccc2c(c1)C(=O)N(c1ccc(Oc3ccc(Oc4ccc(N5C(=O)c6cccc(*)c6C5=O)cc4)cc3)cc1)C2=O (repeat unit)
290.00	*C(=O)c1ccc2c(c1)C(=O)N(c1ccc(Cc3ccccc3N3C(=O)c4ccc(*)cc4C3=O)cc1)C2=O (repeat unit)
259.00	*C(=O)c1ccc2c(c1)C(=O)N(c1cccc(Oc3ccccc3N3C(=O)c4ccc(*)cc4C3=O)c1)C2=O (repeat unit)
238.00	*Oc1cccc(Oc2ccc(Oc3cccc4c3C(=O)N(c3cccc(N5C(=O)c6cccc(*)c6C5=O)c3)C4=O)cc2)c1 (repeat unit)
221.00	*C(=O)c1ccc2c(c1)C(=O)N(c1cccc(Oc3cccc(N4C(=O)c5ccc(*)cc5C4=O)c3)c1)C2=O (repeat unit)
220 ± 130	*C(=O)c1ccc2c(c1)C(=O)N(c1cccc(C(=O)c3cccc(N4C(=O)c5ccc(*)cc5C4=O)c3)c1)C2=O (repeat unit) [Polyimide]
274.00	*c1ccc(Cc2ccc(-n3c(=O)c4cc5c(=O)n(*)c(=O)c5cc4c3=O)c(C)c2)cc1C (repeat unit)

Reference: the PolyMetriX glass transition set
